Data: the supplement of paper PMC11821682

What was measured:
[1] = system: Danio rerio embryo; test: LEL embryonic photomotor response 24 hpf
[2] = system: Danio rerio embryo; test: BMC10 mortality 24-120 hpf; higher = less toxic
Description: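 ZBEscreen: dechorionated Tropical 5D zebrafish embryos were exposed from 4 hpf in 96-well plates (1% DMSO, 28 °C). All compounds were first tested at 100 µM; hits were retested at 0.005-100 µM. Morphology and mortality were scored at 120 hpf and fitted as BMC10 (3-parameter log-logistic, extra risk). The embryonic photomotor response at 24 hpf and the larval photomotor response at 120 hpf are given as lowest effect levels (K-S test, p<0.01). NA = not significant up to 100 µM; NT = not tested.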

[3] = system: Danio rerio embryo; test: LEL larval photomotor response dark phase 120 hpf
[4] = system: Danio rerio embryo; test: BMC10 any morphological effect or mortality at 120 hpf; higher = less toxic
[5] = system: HL-60; test: Cell Health Index (toxicity pseudo-probability over dose series) (index 0-1); higher = more cytotoxic / cell stress;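 also: HL-60 cells exposed 4 h at 37 °C to ten threefold dilutions spanning 5 nM to 100 µM, multiparametric flow cytometry features scored by machine-learning classification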

SMILES: CCC(C)n1ncn(-c2ccc(N3CCN(c4ccc(OC[C@H]5CO[C@](Cn6cncn6)(c6ccc(Cl)cc6Cl)O5)cc4)CC3)cc2)c1=O (stereo not given in full) [Itraconazole]
- LEL embryonic photomotor response 24 hpf [1]: 3.7 µM
- BMC10 mortality 24-120 hpf [2]: 0.276 µM
- LEL larval photomotor response dark phase 120 hpf [3]: 0.41 µM
- BMC10 any morphological effect or mortality [4]: 0.113 µM
- Cell Health Index [5]: 0.382

SMILES: CC[C@H](C)[C@H]1O[C@]2(CC[C@@H]1C)C[C@@H]1C[C@@H](C/C=C(\C)[C@@H](O[C@H]3C[C@H](OC)[C@@H](O[C@H]4C[C@H](OC)[C@@H](O)[C@H](C)O4)[C@H](C)O3)[C@@H](C)/C=C/C=C3\CO[C@@H]4[C@H](O)C(C)=C[C@@H](C(=O)O1)[C@]34O)O2 [Ivermectin B1a]
- LEL embryonic photomotor response 24 hpf [1]: 1.23 µM
- BMC10 mortality 24-120 hpf [2]: 4.04 µM
- LEL larval photomotor response dark phase 120 hpf [3]: 0.41 µM
- BMC10 any morphological effect or mortality [4]: 0.156 µM
- Cell Health Index [5]: 0.687

SMILES: COc1oc(=O)c2cc(N)ccc2c1Cl [JCP251]
- LEL embryonic photomotor response 24 hpf [1]: 100 µM
- BMC10 mortality 24-120 hpf [2]: 71.8 µM
- LEL larval photomotor response dark phase 120 hpf [3]: 11.1 µM
- BMC10 any morphological effect or mortality [4]: 42.2 µM
- Cell Health Index [5]: 0.306

SMILES: CNc1ccc([N+](=O)[O-])c(Nc2ccc3[nH]ncc3c2)n1 [KRIBB11]
- LEL embryonic photomotor response 24 hpf [1]: 11.1 µM
- BMC10 mortality 24-120 hpf [2]: 0.805 µM
- LEL larval photomotor response dark phase 120 hpf [3]: 1.23 µM
- BMC10 any morphological effect or mortality [4]: 3.27 µM
- Cell Health Index [5]: 0.372

SMILES: O=c1c(O)c(-c2ccc(O)cc2)oc2cc(O)cc(O)c12 [Kaempferol]
- LEL embryonic photomotor response 24 hpf [1]: > 100 µM
- BMC10 mortality 24-120 hpf [2]: 38.4 µM
- LEL larval photomotor response dark phase 120 hpf [3]: > 100 µM
- BMC10 any morphological effect or mortality [4]: 10 µM
- Cell Health Index [5]: 0.463

SMILES: CC(C)c1cnn2c(NCc3ccccc3-n3cccn3)nc(OC3CCCNC3)nc12 (stereo not given) [LDC-4297]
- LEL embryonic photomotor response 24 hpf [1]: 33.3 µM
- BMC10 mortality 24-120 hpf [2]: 32.8 µM
- LEL larval photomotor response dark phase 120 hpf [3]: > 100 µM
- BMC10 any morphological effect or mortality [4]: 15.3 µM
- Cell Health Index [5]: 0.847

SMILES: C=CC(C)(C)c1cc(/C=C/C(=O)c2ccc(O)cc2)c(OC)cc1O [Licochalcone A]
- LEL embryonic photomotor response 24 hpf [1]: 3.7 µM
- BMC10 mortality 24-120 hpf [2]: 1.16 µM
- LEL larval photomotor response dark phase 120 hpf [3]: > 100 µM
- BMC10 any morphological effect or mortality [4]: 0.64 µM
- Cell Health Index [5]: 0.828

SMILES: Cc1cnc(-c2ccccc2C(C)C)nc1NCc1ccc(-n2ccnn2)cc1 [ML-323]
- LEL embryonic photomotor response 24 hpf [1]: 11.1 µM
- BMC10 mortality 24-120 hpf [2]: 10.5 µM
- LEL larval photomotor response dark phase 120 hpf [3]: > 100 µM
- BMC10 any morphological effect or mortality [4]: 9.11 µM
- Cell Health Index [5]: 0.577

SMILES: CN(C)CCCNC(=O)c1ccc(-c2cc(O)c3ncccc3c2)cc1 [ML-324]
- LEL embryonic photomotor response 24 hpf [1]: 11.1 µM
- BMC10 mortality 24-120 hpf [2]: 15.9 µM
- LEL larval photomotor response dark phase 120 hpf [3]: > 100 µM
- BMC10 any morphological effect or mortality [4]: 15.9 µM
- Cell Health Index [5]: 0.537

SMILES: O=C(Nc1cccc(NC(=O)c2cccc(O)c2O)c1)c1cccc(O)c1O [MST-312]
- LEL embryonic photomotor response 24 hpf [1]: 100 µM
- BMC10 mortality 24-120 hpf [2]: 74.3 µM
- LEL larval photomotor response dark phase 120 hpf [3]: > 100 µM
- BMC10 any morphological effect or mortality [4]: 65.3 µM
- Cell Health Index [5]: 0.688

SMILES: CC1(C)CC[C@]2(C(=O)O)CC[C@]3(C)C(=CC[C@@H]4[C@@]5(C)C[C@@H](O)[C@H](O)C(C)(C)C5CC[C@]43C)[C@H]2C1 (stereo not given in full) [Maslinic acid]
- LEL embryonic photomotor response 24 hpf [1]: > 100 µM
- BMC10 mortality 24-120 hpf [2]: 13.3 µM
- LEL larval photomotor response dark phase 120 hpf [3]: > 100 µM
- BMC10 any morphological effect or mortality [4]: 13.3 µM
- Cell Health Index [5]: 0.494

SMILES: Cl.O[C@@H](c1cc(C(F)(F)F)nc2c(C(F)(F)F)cccc12)[C@H]1CCCCN1 [Mefloquine]
- LEL embryonic photomotor response 24 hpf [1]: 0.015 µM
- BMC10 mortality 24-120 hpf [2]: 10.7 µM
- LEL larval photomotor response dark phase 120 hpf [3]: > 100 µM
- BMC10 any morphological effect or mortality [4]: 8.89 µM
- Cell Health Index [5]: 0.931

SMILES: CC(=O)O[C@]1(C(C)=O)CC[C@H]2[C@@H]3C=C(C)C4=CC(=O)CC[C@]4(C)[C@H]3CC[C@@]21C [Megestryl acetate]
- LEL embryonic photomotor response 24 hpf [1]: 11.1 µM
- BMC10 mortality 24-120 hpf [2]: 9.53 µM
- LEL larval photomotor response dark phase 120 hpf [3]: > 100 µM
- BMC10 any morphological effect or mortality [4]: 4.08 µM
- Cell Health Index [5]: 0.449

SMILES: CC[C@@]1([C@@H]2O[C@@H]([C@H]3O[C@@](O)(CO)[C@H](C)C[C@@H]3C)C[C@@H]2C)CC[C@H]([C@]2(C)CC[C@]3(C[C@H](O)[C@@H](C)[C@@H]([C@@H](C)[C@@H](OC)[C@H](C)C(=O)[O-])O3)O2)O1.[Na+] [Monensin]
- LEL embryonic photomotor response 24 hpf [1]: > 100 µM
- BMC10 mortality 24-120 hpf [2]: 28.5 µM
- LEL larval photomotor response dark phase 120 hpf [3]: 0.005 µM
- BMC10 any morphological effect or mortality [4]: 27.5 µM
- Cell Health Index [5]: 0.493

SMILES: COc1c(C)c2c(c(O)c1C/C=C(\C)CCC(=O)O)C(=O)OC2 [Mycophenolic acid]
- LEL embryonic photomotor response 24 hpf [1]: 11.1 µM
- BMC10 mortality 24-120 hpf [2]: 1.93 µM
- LEL larval photomotor response dark phase 120 hpf [3]: > 100 µM
- BMC10 any morphological effect or mortality [4]: 1.23 µM
- Cell Health Index [5]: 0.204

SMILES: CCCCCCC(=O)CCCCCC/C=C/C[C@@H](O)[C@H](O)[C@@](N)(CO)C(=O)O [Myriocin]
- LEL embryonic photomotor response 24 hpf [1]: > 100 µM
- BMC10 mortality 24-120 hpf [2]: 1.46 µM
- LEL larval photomotor response dark phase 120 hpf [3]: > 100 µM
- BMC10 any morphological effect or mortality [4]: 1.03 µM
- Cell Health Index [5]: 0.324

SMILES: CC(C)C(=O)SCCCCCCC(=O)Nc1nc(-c2ccccc2)cs1 [NCH-51]
- LEL embryonic photomotor response 24 hpf [1]: 0.41 µM
- BMC10 mortality 24-120 hpf [2]: 0.624 µM
- LEL larval photomotor response dark phase 120 hpf [3]: > 100 µM
- BMC10 any morphological effect or mortality [4]: 0.188 µM
- Cell Health Index [5]: 0.268

SMILES: CCCCCCCCCCCCCCCC[n+]1ccn(Cc2ccccc2)c1C.[I-] [NH125 parent]
- LEL embryonic photomotor response 24 hpf [1]: 33.3 µM
- BMC10 mortality 24-120 hpf [2]: 8.53 µM
- LEL larval photomotor response dark phase 120 hpf [3]: > 100 µM
- BMC10 any morphological effect or mortality [4]: 7.19 µM
- Cell Health Index [5]: 0.949

SMILES: CCCCCCCC/C=C\CCCCCCCCCCCCCC(=O)O [Nervonic acid]
- LEL embryonic photomotor response 24 hpf [1]: > 100 µM
- BMC10 mortality 24-120 hpf [2]: 31 µM
- LEL larval photomotor response dark phase 120 hpf [3]: > 100 µM
- BMC10 any morphological effect or mortality [4]: 30.9 µM
- Cell Health Index [5]: 0.175

SMILES: CC(=O)Oc1ccccc1C(=O)Nc1ncc([N+](=O)[O-])s1 [Nitazoxanide]
- LEL embryonic photomotor response 24 hpf [1]: > 100 µM
- BMC10 mortality 24-120 hpf [2]: 45.9 µM
- LEL larval photomotor response dark phase 120 hpf [3]: > 100 µM
- BMC10 any morphological effect or mortality [4]: 44.9 µM
- Cell Health Index [5]: 0.723

SMILES: N[C@H]1C[C@@H]1c1ccc(-c2cccc(O)c2)cc1 [OG-L002]
- LEL embryonic photomotor response 24 hpf [1]: 0.015 µM
- BMC10 mortality 24-120 hpf [2]: 15.4 µM
- LEL larval photomotor response dark phase 120 hpf [3]: > 100 µM
- BMC10 any morphological effect or mortality [4]: 3.27 µM
- Cell Health Index [5]: 0.334

SMILES: COc1ccc(C(=O)O[C@H]2[C@H](O[C@@H]3[C@@H](OC(C)=O)[C@H](O[C@H]4C[C@H]5[C@@H]6CC=C7C[C@@H](O)CC[C@]7(C)[C@H]6CC[C@]5(C)[C@@]4(O)[C@H](C)C(=O)CCC(C)C)OC[C@@H]3O)OC[C@@H](O)[C@@H]2O)cc1 [OSW-1]
- LEL embryonic photomotor response 24 hpf [1]: > 100 µM
- BMC10 mortality 24-120 hpf [2]: 0.03 µM
- LEL larval photomotor response dark phase 120 hpf [3]: 0.14 µM
- BMC10 any morphological effect or mortality [4]: 0.03 µM
- Cell Health Index [5]: 0.822

SMILES: CC1(C)CC[C@]2(C(=O)O)CC[C@]3(C)C(=CC[C@@H]4[C@@]5(C)CC[C@H](O)C(C)(C)[C@@H]5CC[C@]43C)[C@@H]2C1 [Oleanolic acid]
- LEL embryonic photomotor response 24 hpf [1]: > 100 µM
- BMC10 mortality 24-120 hpf [2]: 8.42 µM
- LEL larval photomotor response dark phase 120 hpf [3]: > 100 µM
- BMC10 any morphological effect or mortality [4]: 3.43 µM
- Cell Health Index [5]: 0.354

SMILES: COc1c(O)cc2oc(-c3ccccc3)cc(=O)c2c1O [Oroxylin A]
- LEL embryonic photomotor response 24 hpf [1]: > 100 µM
- BMC10 mortality 24-120 hpf [2]: 64.9 µM
- LEL larval photomotor response dark phase 120 hpf [3]: > 100 µM
- BMC10 any morphological effect or mortality [4]: 27.2 µM
- Cell Health Index [5]: 0.234
